≈ marks a conversion by molar mass, not a printed value. Structures can show the parent of a compound that is named as a salt. Where two headings read alike, the source gives them in different places.
Tests used:
Assay in all cases: MIC, Bouillon-microdilution method (CLSI M07-A8)
Assay type in all cases: cell-based
[1] = test system: Aspergillus fumigatus ATCC 9197; settings: ATCC9197, read-out: MIC values A.f.
Method: (§1) The respective determination is valid if in the growth control (DMSO and medium) a distinct turbidity is observed.
(§2) The minimum inhibitory concentrations of the substances of the present inventions against various infectious germs, i.a. against methicillin-resistant Staphylococcus aureus were determined with the Bouillon-microdilution method in accordance with the procedure M07-A8 of the Clinical and Laboratory Standards Institute (Pennsylvania, USA).
(§3) (Source: German Collection of Microorganisms and Cell Cultures, Braunschweig) Enterococcus hirae ATCC 10541, Staphylococcus epidermidis ATCC 12228, Staphylococcus aureus ATCC 6538, methicillin-resistant Staphylococcus aureus ATCC 33592, Bacillus cereus ATCC 11778, Candida albicans ATCC 10231, Aspergillus niger ATCC 16404, Aspergillus fumigatus ATCC 9197.
(§4) In sterile tubes with titled agar, bacteria with casein peptone soy flour peptone agar (Merck, Art. No. 1.05458.05), incubation 18-24 h at 34° C., fungi with Sabouraud 4% Glucose Agar (Merck 1.05438.05), incubation Candida albicans 18-24 h at 34° C., mold fungous 7 days at 22° C.
(§5) Suspensions are produced on titled agar by floating with 0.9% sterile NaCl solution. The turbidity is adjusted photometrically by dilution according to the turbidity of the Mc Farland-standard 0.5.
(§6) Subsequently, the bacterial suspensions are diluted in the ratio of 1:10, the Pi-suspension of the fungi remains undiluted.
(§7) The number of the germs in the inocula is adjusted so that there are approximately 5×10^5 colony forming units per milliliter after inoculation of the test wells.
(§8) The amount of a substance to be tested in a trial is weighed out on a microbalance with an Eppendorf reaction vessel and dissolved in an appropriate volume of dimethyl sulfoxide so that the concentration of the resulting solution corresponds to the 21 times highest final test concentration. The stock solution is subsequently diluted in a serial in a ratio respectively 1 ad 2 with DMSO resulting in seven different concentrations in the wells of a predilution plate. In the eighth well only DMSO is pipetted.
(§9) In each of the 96 wells of a test plate 95 μl sterile Mueller Hinton II medium (Cation adjusted, BBL™ Ref. 212322) for bacteria and sterile Sabouraud 2% glucose medium (DIFCO™ Ref 238230) for fungis are added with an eight-channel pipette (Socorex 50-200 μL). 5 μL of the solution to be tested are pipetted in each of the test wells of the plate (8-channel pipette, Eppendorf-Research, 5-10 μL). They are transferred in this way from the pre-dilutions that in the horizontal row A the highest concentration and respectively a half reduced concentration of the substance to be tested until row G and in row H only DMSO is pipetted. Subsequently, 5 μL of the inocula are pipetted in the test wells using an eight-channel pipette. In one test at least two, maximum four rows are inoculated with the same substance and the same germs. The concentrations of the test substance are each 128 μg/mL to 2 μg/mL.
(§10) The prepared plates are converted to a microtiter plate reader (Anthos ht111) which is connected to a printer. In this device, the plates are shaken for 60 seconds with high frequency before each measurement and the absorption of the probes is measured at the wavelength of light of 590 nm.
(§11) After determination of the initial values the plates are incubated at 34° C. for 16 to 20 h for bacteria and Candida albicans, and 68 to 72 h at 34° C. for mould fungis.
(§12) Following this the micro titer plates are measured again as described above.
(§13) The minimum inhibitory concentration is the lowest concentration of the tested substance which is able to inhibit the complete growth of the particular test organism, i.e. where after incubation no turbidity is measurable. The particular determination is valid when in the growth control (DMSO and medium) a distinct turbidity is observed.

[2] = test system: Aspergillus niger ATCC 16404; settings: ATCC16404, read-out: MIC values A.n.
Method: as §1, §2, §3, §4, §5, §6, §7, §8, §9, §10, §11, §12, §13

[3] = test system: Staphylococcus aureus ATCC 6538; settings: for MIC: Staphylococcus aureus
Method: as §1, §2, §3, §4, §5, §6, §7, §8, §9, §10, §11, §12, §13

[4] = test system: Enterococcus hirae ATCC 10541; settings: ATCC10541, read-out: MIC values E.h.
Method: as §1, §2, §3, §4, §5, §6, §7, §8, §9, §10, §11, §12, §13

[5] = test system: Staphylococcus epidermidis ATCC 12228; settings: ATCC12228, Staphylococcus epidermis, read-out: MIC values S.e.
Method: as §1, §2, §3, §4, §5, §6, §7, §8, §9, §10, §11, §12, §13

[6] = test system: methicillin-resistant Staphylococcus aureus ATCC 33592; settings: for MIC: ATCC 33592 / MRSA, read-out: MIC values MRSA
Method: as §1, §2, §3, §4, §5, §6, §7, §8, §9, §10, §11, §12, §13

[7] = test system: Pseudomonas aeroginosa; settings: read-out: MIC values P.a.
Method: as §1, §2, §4, §5, §6, §7, §8
as §9, with “Subsequently, 5 μL of the inocula are pipetted in the test wells using an eight-channel pipette. In one test at least two, maximum four rows are inoculated with the same substance and the same germs. The concentrations of the test substance are each 128 μg/mL to 2 μg/mL.” left out
(§14) The prepared plates are converted to a microtiter plate reader (Anthos ht111) which is connected to a printer. In this device, the plates are shaken for 60 seconds with high frequency before each measurement and the absorption of the probes is measured at the wavelength of light of 590 nm. […]
(§15) Following this the micro titer plates are measured again as described above. […]

[8] = test system: Escherichia coli; settings: read-out: MIC values E.c.
Method: as §1, §2, §4, §5, §6, §7, §8
as §9, with “Subsequently, 5 μL of the inocula are pipetted in the test wells using an eight-channel pipette. In one test at least two, maximum four rows are inoculated with the same substance and the same germs. The concentrations of the test substance are each 128 μg/mL to 2 μg/mL.” left out
as §14, §15

[9] = test system: Candida albicans ATCC 10231
Method: as §1, §2, §3, §4, §5, §6, §7, §8, §9, §10, §11, §12, §13

[10] = ATCC6538, number of tests in brackets, rounded average of logarithmic endpoints, read-out: MIC values S.a.
[11] = methicillin-resistant Staphylococcus aureus, number of tests in brackets

Work on `CN(C)CCCC(=O)c1ccc(-c2ccc(Br)cc2)cc1.Cl` [GG20-4, 4′-(4-bromophenyl)-4-dimethylaminobutyrophenone-hydrochloride] yielded an MIC [1] of 8 µg/mL, an MIC [2] of 64 µg/mL and an MIC [3, 10] of 4 to 8 µg/mL. The MIC [4] was 16 µg/mL, the MIC [5] was 4 µg/mL and the MIC [6, 11] was 8 µg/mL. It also gave an MIC [7] of over 64 µg/mL and an MIC [8] of over 64 µg/mL.
`CN[C@H](CC(C)C)C(=O)N[C@H]1C(=O)N[C@@H](CC(N)=O)C(=O)N[C@H]2C(=O)N[C@H]3C(=O)N[C@H](C(=O)N[C@H](C(=O)O)c4cc(O)cc(O)c4-c4cc3ccc4O)[C@H](O)c3ccc(c(Cl)c3)Oc3cc2cc(c3O[C@@H]2O[C@H](CO)[C@@H](O)[C@H](O)[C@H]2O[C@H]2C[C@](C)(N)[C@H](O)[C@H](C)O2)Oc2ccc(cc2Cl)[C@H]1O` [Vancomycin, reference compound] was tested, and the MIC ([6]; Staphylococcus aureus) was under 2 µg/mL.
`CN(C)CCCCC(=O)c1ccc(-c2ccc(Br)cc2)cc1.Cl` [GG20-5] showed an MIC ([9]; ATCC10231, Candida albicans, number of tests in brackets, read-out: MIC values C.a. (Yeast)) of 8 µg/mL, an MIC [3, 10] of 16 µg/mL and an MIC [6, 11] of 16 µg/mL.
For `CN(C)[C@@H]1C(=O)C(C(N)=O)=C(O)[C@@]2(O)C(=O)C3=C(O)c4c(O)cccc4[C@@](C)(O)[C@H]3C[C@@H]12` [Tetracyclin, reference compound], the “MIC values MRSA” value [6, 11] was 64 µg/mL (≈ 144 µM).
`CN(C)CCC(=O)c1ccc(-c2ccc(Br)cc2)cc1.Cl` [GG20-3, reference compound] gave an MIC [3, 10] of 32 µg/mL, an MIC [5] of 16 µg/mL and an MIC [6, 11] of 32 µg/mL. It also gave an MIC [7] of over 64 µg/mL and an MIC [8] of over 64 µg/mL.
In the case of `Cl.O=C(CCCN1CCN(c2ccccc2)CC1)c1ccc(-c2ccc(Br)cc2)cc1` [4′-(4-bromophenyl)-4-(N-phenylpiperazino)butyrophenone-hydrochloride, reference compound], the “MIC value / growth inhibition of Staphylococcus aureus (result in words)” value ([3]; also after addition of higher concentrations) was “did not inhibit the growth”.
Work on `CN(C)CCCCc1ccc(-c2ccc(Br)cc2)cc1` [GG28, 4-bromo-4′-(4-dimethylaminobutyl) biphenyl hydrochloride] yielded an MIC ([9]; ATCC10231, read-out: MIC values C.a. (Yeast)) of 8 µg/mL, an MIC ([3]; ATCC6538, read-out: MIC values S.a.) of 13 µg/mL and an MIC ([6]; Staphylococcus aureus) of 18 µg/mL.

Source: patent publication US9693974B2, “Antibacterial and antifungal biphenylyl compounds” (CHRISTIAN-ALBRECHTS-UNIVERSITY OF KIEL, priority 2010, dated 2017)
